Assay results from patent US20230278972A1, “SUBSTITUTED HALOALKYL SULFONANILIDE HERBICIDES” (FMC Corporation, priority 2020, published 2023).

Experiments:
Assay type in all cases: in vivo
[1] = tested on: ragweed (common ragweed, Ambrosia artemisiifolia); assay: Test A postemergence, ragweed; settings: Postemergence, 0 to 100 scale (0 no effect, 100 complete control)
Method in brief: (§1)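 Compounds in non-phytotoxic solvent with surfactant. Soil: loam/sand. Preemergence via directed soil spray after seeding; postemergence on seedlings 2–10 cm, one- to two-leaf.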

[2] = tested on: pigweed (Amaranthus retroflexus); assay: Test A preemergence, pigweed; settings: for Plant response rating, Pigweed: 0 to 100 scale (0 no effect, 100 complete control)
Method in brief: (§2)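 Whole-plant herbicidal screen in pots of loam blended with sand. Sprays used a surfactant-containing, non-phytotoxic solvent vehicle. Timing was preemergence soil-directed at planting or postemergence at the one- to two-leaf stage (2–10 cm).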

[3] = tested on: Foxtail, Giant (giant foxtail, Setaria faberi); assay: Test A preemergence, Foxtail, Giant; settings: Preemergence; for Plant response rating, Foxtail, Giant: 0 to 100 scale (0 no effect, 100 complete control)
Method in brief: as §1

kochia (Bassia scoparia) [4] = assay: Test A preemergence, kochia; settings: Preemergence; for Plant response rating, Kochia: 0 to 100 scale (0 no effect, 100 complete control)
Method in brief: as §1

kochia (Bassia scoparia) [5] = assay: Test A postemergence, kochia; settings: Postemergence, 0 to 100 scale (0 no effect, 100 complete control)
Method in brief: as §1

corn (Zea mays) = assay: Test A postemergence, corn; settings: Postemergence, 0 to 100 scale (0 no effect, 100 complete control)
Method in brief: as §1

[6] = tested on: Ryegrass, Italian (Italian ryegrass, Lolium multiflorum); assay: Test A preemergence, Ryegrass, Italian; settings: Preemergence; for Plant response rating, Ryegrass, Italian: 0 to 100 scale (0 no effect, 100 complete control)
Method in brief: as §1

[7] = tested on: ragweed (common ragweed, Ambrosia artemisiifolia); assay: Test A preemergence, ragweed; settings: Preemergence; for Plant response rating, Ragweed: 0 to 100 scale (0 no effect, 100 complete control)
Method in brief: as §1

[8] = tested on: barnyardgrass (Echinochloa crus-galli); assay: Test A preemergence, barnyardgrass; settings: Preemergence; for Plant response rating, Barnyardgrass: 0 to 100 scale (0 no effect, 100 complete control)
Method in brief: as §1

[9] = tested on: Foxtail, Giant (giant foxtail, Setaria faberi); assay: Test A postemergence, Foxtail, Giant; settings: Postemergence, 0 to 100 scale (0 no effect, 100 complete control)
Method in brief: as §1

[10] = tested on: barnyardgrass (Echinochloa crus-galli); assay: Test A postemergence, barnyardgrass; settings: Postemergence, 0 to 100 scale (0 no effect, 100 complete control)
Method in brief: as §2

[11] = tested on: Ryegrass, Italian (Italian ryegrass, Lolium multiflorum); assay: Test A postemergence, Ryegrass, Italian; settings: Postemergence, 0 to 100 scale (0 no effect, 100 complete control)
Method in brief: as §1

[12] = tested on: galium (catchweed bedstraw, Galium aparine); assay: Test A postemergence, galium; settings: Postemergence, 0 to 100 scale (0 no effect, 100 complete control)
Method in brief: as §2

[13] = tested on: wheat (Triticum aestivum); assay: Test A postemergence, wheat; settings: Postemergence, 0 to 100 scale (0 no effect, 100 complete control)
Method in brief: as §2

[14] = tested on: pigweed (Amaranthus retroflexus); assay: Test A postemergence, pigweed; settings: Postemergence, 0 to 100 scale (0 no effect, 100 complete control)
Method in brief: as §1

[15] = tested on: blackgrass (Alopecurus myosuroides); assay: Test A postemergence, blackgrass; settings: Postemergence, 0 to 100 scale (0 no effect, 100 complete control)
Method in brief: as §1

[16] = 1000 g ai/ha, visual injury, approx. 10 days
[17] = 500 g ai/ha, visual injury approx. 10 days
[18] = 125 g ai/ha, visual injury, approx. 10 days
[19] = 500 g ai/ha, visual injury on 0 to 100 scale (0 no effect, 100 complete control), approximately 10 days

Structure (SMILES): Cc1cc(C)c(C(=O)N2CCC(C(C)(C)C)CC2)cc1NS(=O)(=O)C(F)(F)F [Compound 261]
- Plant response rating, Ragweed [1, 16]: 0
- Plant response rating, Pigweed ([2]; 1000 g ai/ha): 20
- Plant response rating, Foxtail, Giant ([3]; 1000 g ai/ha): 90
- Plant response rating, Kochia (kochia (Bassia scoparia) [4]; 1000 g ai/ha): 0
- Plant response rating, Kochia (kochia (Bassia scoparia) [5]; [16]): 0
- Plant response rating, Corn (corn (Zea mays); [16]): 10
- Plant response rating, Ryegrass, Italian ([6]; 1000 g ai/ha): 60
- Plant response rating, Ragweed ([7]; 1000 g ai/ha): 0
- Plant response rating, Barnyardgrass ([8]; 1000 g ai/ha): 60
- Plant response rating, Foxtail, Giant [9, 16]: 0
- Plant response rating, Barnyardgrass [10, 16]: 0
- Plant response rating, Ryegrass, Italian [11, 16]: 20
- Plant response rating, Galium [12, 16]: 50
- Plant response rating, Wheat [13, 16]: 0
- Plant response rating, Pigweed [14, 16]: 30
- Plant response rating, Blackgrass [15, 16]: 0

Structure (SMILES): Cc1ccc(C(=O)N2CCC(C(C)(C)C)CC2)cc1NS(=O)(=O)C(F)(F)F [Compound 262]
- Plant response rating, Ragweed [1, 16]: 0
- Plant response rating, Pigweed ([2]; 1000 g ai/ha): 0
- Plant response rating, Foxtail, Giant ([3]; 1000 g ai/ha): 70
- Plant response rating, Kochia (kochia (Bassia scoparia) [4]; 1000 g ai/ha): 0
- Plant response rating, Kochia (kochia (Bassia scoparia) [5]; [16]): 0
- Plant response rating, Corn (corn (Zea mays); [16]): 0
- Plant response rating, Ryegrass, Italian ([6]; 1000 g ai/ha): 20
- Plant response rating, Ragweed ([7]; 1000 g ai/ha): 0
- Plant response rating, Barnyardgrass ([8]; 1000 g ai/ha): 20
- Plant response rating, Foxtail, Giant [9, 16]: 0
- Plant response rating, Barnyardgrass [10, 16]: 0
- Plant response rating, Ryegrass, Italian [11, 16]: 20
- Plant response rating, Galium [12, 16]: 40
- Plant response rating, Wheat [13, 16]: 0
- Plant response rating, Pigweed [14, 16]: 20
- Plant response rating, Blackgrass [15, 16]: 20

Structure (SMILES): Cc1cc(C)c(C(=O)N2CCC(C)CC2)cc1NS(=O)(=O)C(F)(F)F [Compound 264]
- Plant response rating, Ragweed [1, 16]: 60
- Plant response rating, Pigweed ([2]; 1000 g ai/ha): 80
- Plant response rating, Foxtail, Giant ([3]; 1000 g ai/ha): 100
- Plant response rating, Kochia (kochia (Bassia scoparia) [4]; 1000 g ai/ha): 70
- Plant response rating, Kochia (kochia (Bassia scoparia) [5]; [16]): 20
- Plant response rating, Corn (corn (Zea mays); [16]): 20
- Plant response rating, Ryegrass, Italian ([6]; 1000 g ai/ha): 100
- Plant response rating, Ragweed ([7]; 1000 g ai/ha): 90
- Plant response rating, Barnyardgrass ([8]; 1000 g ai/ha): 100
- Plant response rating, Foxtail, Giant [9, 16]: 40
- Plant response rating, Barnyardgrass [10, 16]: 50
- Plant response rating, Ryegrass, Italian [11, 16]: 50
- Plant response rating, Galium [12, 16]: 70
- Plant response rating, Wheat [13, 16]: 70
- Plant response rating, Pigweed [14, 16]: 60
- Plant response rating, Blackgrass [15, 16]: 60

Structure (SMILES): Cc1cc(C)c(N2CCC3(CCCC3)C2=O)cc1NS(=O)(=O)C(F)(F)F [Compound 270]
- Plant response rating, Ragweed ([1]; 125 g ai/ha): 30
- Plant response rating, Ragweed [1, 17]: 60
- Plant response rating, Pigweed [2, 18]: 70
- Pigweed plant response rating [2, 19]: 100
- Plant response rating, Foxtail, Giant [3, 18]: 100
- Foxtail, Giant plant response rating [3, 19]: 100
- Plant response rating, Kochia (kochia (Bassia scoparia) [4]; [18]): 0
- Kochia plant response rating (kochia (Bassia scoparia) [4]; [19]): 0
- Plant response rating, Kochia (kochia (Bassia scoparia) [5]; 125 g ai/ha): 10
- Plant response rating, Kochia (kochia (Bassia scoparia) [5]; [17]): 50
- Plant response rating, Corn (corn (Zea mays); 125 g ai/ha): 0
- Plant response rating, Corn (corn (Zea mays); [17]): 50
- Plant response rating, Ryegrass, Italian [6, 18]: 100
- Ryegrass, Italian plant response rating [6, 19]: 100
- Plant response rating, Ragweed [7, 18]: 0
- Ragweed plant response rating [7, 19]: 80
- Plant response rating, Barnyardgrass [8, 18]: 90
- Barnyardgrass plant response rating [8, 19]: 90
- Plant response rating, Foxtail, Giant ([9]; 125 g ai/ha): 0
- Plant response rating, Foxtail, Giant [9, 17]: 20
- Plant response rating, Barnyardgrass ([10]; 125 g ai/ha): 0
- Plant response rating, Barnyardgrass [10, 17]: 70
- Plant response rating, Ryegrass, Italian ([11]; 125 g ai/ha): 0
- Plant response rating, Ryegrass, Italian [11, 17]: 70
- Plant response rating, Galium ([12]; 125 g ai/ha): 80
- Plant response rating, Galium [12, 17]: 90
- Plant response rating, Wheat ([13]; 125 g ai/ha): 40
- Plant response rating, Wheat [13, 17]: 70
- Plant response rating, Pigweed ([14]; 125 g ai/ha): 60
- Plant response rating, Pigweed [14, 17]: 90
- Plant response rating, Blackgrass ([15]; 125 g ai/ha): 20
- Plant response rating, Blackgrass [15, 17]: 70
